Patent US20050004163A1, “3-(diarylmethylene)-8-azabicyclo[3.2.1]octane derivatives” (priority 2000, published 2005)

The compounds below were run against T1, μ-opioid receptor (Rattus norvegicus, UniProt P33535) (assay: Rat brain μ-opioid receptor binding assay ([3H]DAMGO)). Details: 10 nM solutions of the compounds, read-out: MOR binding Ki.
T1 construct: the forebrains are homogenized in Tris buffer in a Teflon®-glass homogenizer; from tissue; host or cells: forebrain of male Wistar rats (particulate membrane preparation)
T1 sequence (P33535 whole entry): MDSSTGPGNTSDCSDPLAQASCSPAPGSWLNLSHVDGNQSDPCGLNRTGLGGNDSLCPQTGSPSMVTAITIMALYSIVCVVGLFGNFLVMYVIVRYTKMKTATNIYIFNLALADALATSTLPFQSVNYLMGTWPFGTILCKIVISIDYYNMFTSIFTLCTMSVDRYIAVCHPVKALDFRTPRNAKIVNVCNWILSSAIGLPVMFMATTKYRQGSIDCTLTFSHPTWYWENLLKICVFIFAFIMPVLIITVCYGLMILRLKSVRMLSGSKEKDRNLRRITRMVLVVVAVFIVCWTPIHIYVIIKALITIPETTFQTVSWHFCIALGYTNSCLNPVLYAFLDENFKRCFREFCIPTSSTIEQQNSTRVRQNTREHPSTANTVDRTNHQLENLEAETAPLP
Description: Rat Brain μ-Opioid Receptor Binding Assay
Male, Wistar rats (150-250 g, VAF, Charles River, Kingston, N.Y.) are killed by cervical dislocation and their brains removed and placed immediately in ice cold Tris HCl buffer (50 mM, pH 7.4). The forebrains are separated from the remainder of the brain by a coronal transection, beginning dorsally at the colliculi and passing ventrally through the midbrain-pontine junction. After dissection, the forebrains are homogenized in Tris buffer in a Teflon®-glass homogenizer. The homogenate is diluted to a concentration of 1 g of forebrain tissue per 100 mL Tris buffer and centrifuged at 39,000×G for 10 min. The pellet is resuspended in the same volume of Tris buffer with several brief pulses from a Polytron homogenizer. This particulate preparation is used for the μ-opioid binding assays. […] The tubes and filters are rinsed three times with 4 mL of 10 mM HEPES (pH 7.4) and the radioactivity associated with the filter circles determined using Formula 989 scintillation fluid (New England Nuclear, Boston, Mass.) in a scintillation counter.
The data are used to calculate either the % inhibition compared to control binding (when only a single concentration of test compound is evaluated) or a Ki value (when a range of concentrations is tested).
% Inhibition is calculated as follows: [formula]
Ki value is calculated using the LIGAND (Munson, P. J. and Rodbard, D., Anal. Biochem. 107: 220-239, 1980) data analysis program.

Row | Structure (SMILES) | Ki [nM]
1 | CCNC(=O)c1ccc(C(Br)=C2CC3CCC(C2)N3Cc2ccsc2)cc1 [Cpd 23] | 6.23
2 | CCNC(=O)c1ccc(C=C2CC3CCC(C2)N3Cc2ccc(Cl)s2)cc1 [Cpd 77] | 356
3 | CCNC(=O)c1ccc(C(=C2CC3CCC(C2)N3CC=C(C)C)c2nnn[nH]2)cc1 [Cpd 147] | 109
4 | CCNC(=O)c1ccc(C(=C2CC3CCC(C2)N3C=O)c2cccnc2)cc1 [Cpd 207, N-Ethyl-4-[(8-formyl-8-aza-bicyclo[3.2.1]oct-3-ylidene)-pyridin-3-yl-methyl]-benzamide] | 10000
5 | CCNC(=O)c1ccc(C(=C2CC3CCC(C2)N3Cc2ccco2)c2ccc(C(=O)O)cc2)cc1 [Cpd 96] | 63.5
6 | CCNC(=O)c1ccc(C(Br)=C2CC3CCC(C2)N3Cc2ccc(NC(C)=O)cc2)cc1 [Cpd 21] | 48.2
7 | CCNC(=O)c1ccc(C=C2CC3CCC(C2)N3Cc2sccc2C)cc1 [Cpd 38] | 236
8 | CCNC(=O)c1ccc(C(Br)=C2CC3CCC(C2)N3Cc2c[nH]cn2)cc1 [Cpd 39] | 83.7
9 | CCNC(=O)c1ccc(C=C2CC3CCC(C2)N3Cc2ccc3ccccc3n2)cc1 [Cpd 35] | 532
10 | CCNC(=O)c1ccc(C(=C2CC3CCC(C2)N3CC=C(C)C)c2ccc(CO)cc2)cc1 [Cpd 194] | 3.67
11 | CCNC(=O)c1ccc(C(=C2CC3CCC(C2)N3CC=C(C)C)c2cccc(C(=O)O)c2)cc1 (single isomer, unassigned) [Cpd 45] | 23.7
12 | CCNC(=O)c1ccc(C(Br)=C2CC3CCC(C2)N3Cc2sccc2C)cc1 [Cpd 28] | 69.6

Same assay, conditions: MOR binding Ki

Row | Structure (SMILES) | Ki [nM]
13 | CCNC(=O)c1ccc(C(=C2CC3CCC(C2)N3Cc2cccs2)c2cnc3ccccc3c2)cc1 [Cpd 64] | 30.8
14 | CCNC(=O)c1ccc(C=C2CC3CCC(C2)N3Cc2cccnc2)cc1 [Cpd 57] | 1410
15 | CCNC(=O)c1ccc(C(=C2CC3CCC(C2)N3Cc2ccc3ccccc3n2)c2cnccn2)cc1 [Cpd 30] | 15
16 | CCNC(=O)c1ccc(C(=C2CC3CCC(C2)N3Cc2ccccn2)c2ccc(CO)cc2)cc1 [Cpd 193] | 25.3
17 | CCNC(=O)c1ccc(C(=C2CC3CCC(C2)N3Cc2nccs2)c2ccc(NS(C)(=O)=O)cc2)cc1 [Cpd 187] | 121
18 | CCNC(=O)c1ccc(C(=C2CC3CCC(C2)N3Cc2ccsc2)c2cccc(CO)c2)cc1 [Cpd 189] | 13.7
19 | CCNC(=O)c1ccc(C(=C2CC3CCC(C2)N3Cc2cccc(C(=O)O)c2)c2ccccc2)cc1 [Cpd 93] | 280
20 | CCNC(=O)c1ccc(C(=C2CC3CCC(C2)N3Cc2csc([N+](=O)[O-])c2)c2cccnc2)cc1 [Cpd 74] | 37.5
21 | CCN(CC)C(=O)c1ccc(C(=C2CC3CCC(C2)N3C(=N)N)c2ccccc2)cc1 [Cpd 198, 4-[(8-Carbamimidoyl-8-aza-bicyclo[3.2.1]oct-3-ylidene)-phenyl-methyl]-N,N-diethyl-benzamide] | 10000
22 | CCNC(=O)c1ccc(C(=C2CC3CCC(C2)N3Cc2ccc(C(=O)O)cc2)c2ccccc2)cc1 [Cpd 94] | 322
23 | CCNC(=O)c1ccc(C(=C2CC3CCC(C2)N3CCc2ccccc2)c2cc(C(=O)O)cc([N+](=O)[O-])c2)cc1 [Cpd 157] | 8.57
24 | CCNC(=O)c1ccc(C=C2CC3CCC(C2)N3Cc2ccc(NC(C)=O)cc2)cc1 [Cpd 31] | 25.6
25 | CCNC(=O)c1ccc(C(=C2CC3CCC(C2)N3Cc2ccc3ccccc3n2)c2cccc(C(=O)O)c2)cc1 [Cpd 85] | 537
26 | CCNC(=O)c1ccc(C(=C2CC3CCC(C2)N3C(=O)c2ccoc2)c2cccnc2)cc1 [Cpd 214] | 580
27 | CCNC(=O)c1ccc(C(=C2CC3CCC(C2)N3Cc2ccsc2)c2ccc(CCC(=O)O)cc2)cc1 [Cpd 129] | 6.73
28 | CCNC(=O)c1ccc(C(=C2CC3CCC(C2)N3Cc2cccs2)c2cc(N)cc(C(=O)O)c2)cc1 [Cpd 120] | 5360
29 | CCN(CC)C(=O)c1ccc(C(=C2CC3CCC(C2)N3C=O)c2ccccc2)cc1 [Cpd 199] | 5340
30 | CCNC(=O)c1ccc(C(=C2CC3CCC(C2)N3Cc2ccc3c(c2)OCO3)c2cnc3ccccc3c2)cc1 [Cpd 65] | 42.6
31 | CCN(CC)C(=O)c1ccc(C=C2CC3CCC(C2)N3)cc1 [Cpd 48, 4-(8-Aza-bicyclo[3.2.1]oct-3-ylidenemethyl)-N,N-diethylbenzamide] | 25800
32 | CCNC(=O)c1ccc(C=C2CC3CCC(C2)N3CC=C(C)C)cc1 [Cpd 55] | 195
33 | CCNC(=O)c1ccc(C(=C2CC3CCC(C2)N3Cc2ccoc2)c2cnc3ccccc3c2)cc1 [Cpd 17] | 20.3
34 | CCNC(=O)c1ccc(C(=C2CC3CCC(C2)N3Cc2ccsc2)c2ccc([N+](=O)[O-])cc2)cc1 [Cpd 128] | 4.27
35 | CCNC(=O)c1ccc(C(=C2CC3CCC(C2)N3Cc2nccs2)c2ccc(CC(N)C(=O)O)cc2)cc1 (stereo not shown) [Cpd 131] | 152
36 | CCNC(=O)c1ccc(C=C2C[C@H]3CC[C@@H](C2)N3CCc2ccccc2)cc1 (single isomer, unassigned) [Cpd 41, (+)—N-Ethyl-4-(8-phenethyl-8-aza-bicyclo[3.2.1]oct-3-ylidenemethyl)-benzamide] | 124
37 | CCNC(=O)c1ccc(C=C2CC3CCC(C2)N3Cc2c[nH]cn2)cc1 [Cpd 46] | 5480
38 | CCNC(=O)c1ccc(C(Br)=C2C[C@H]3CC[C@@H](C2)N3)cc1 (single isomer, unassigned) [Cpd 92] | 115

Row | Structure (SMILES) | Ki [nM]
39 | CCNC(=O)c1ccc(C(=C2CC3CCC(C2)N3Cc2nccs2)c2cccc(-c3nnn[nH]3)c2)cc1 [Cpd 167] | 5.35
40 | CCNC(=O)c1ccc(C(=C2CC3CCC(C2)N3Cc2ccco2)c2ccc3c(c2)OCO3)cc1 [Cpd 8] | 7.41
41 | CCNC(=O)c1ccc(C(=C2CC3CCC(C2)N3Cc2ccc3ccccc3n2)c2cccc(C(C)=O)c2)cc1 [Cpd 73] | 35.9
42 | CCNC(=O)c1ccc(C(=C2CC3CCC(C2)N3Cc2ccco2)c2ccc(CCC(=O)O)cc2)cc1 [Cpd 125] | 47.6
43 | CCNC(=O)c1ccc(C(Br)=C2CC3CCC(C2)N3Cc2ccoc2)cc1 (single isomer, unassigned) [Cpd 211] | 0.23
44 | CCN(CC)C(=O)c1ccc(C(Br)=C2CC3CCC(C2)N3)cc1 [Cpd 49, 4-[(8-Aza-bicyclo[3.2.1]oct-3-ylidene)-bromo-methyl]-N,N-diethylbenzamide] | 100000
45 | CCNC(=O)c1ccc(C(=C2CC3CCC(C2)N3CCc2ccccc2)c2ccc(NS(C)(=O)=O)cc2)cc1 [Cpd 185] | 58.9
46 | CCNC(=O)c1ccc(C(=C2CC3CCC(C2)N3Cc2nccs2)c2ccc(C(=O)O)cc2)cc1 [Cpd 174] | 304
47 | CCNC(=O)c1ccc(C=C2CC3CCC(C2)N3Cc2ccc3c(c2)OCO3)cc1 [Cpd 54] | 130
48 | CCNC(=O)c1ccc(C(=C2CC3CCC(C2)N3Cc2ccoc2)c2cc(C(=O)O)cc([N+](=O)[O-])c2)cc1 [Cpd 152] | 12.2
49 | CCNC(=O)c1ccc(C(=C2CC3CCC(C2)N3Cc2ccsc2)c2ccc(NS(C)(=O)=O)cc2)cc1 [Cpd 190] | 0.717
50 | CCNC(=O)c1ccc(C(=C2CC3CCC(C2)N3Cc2ccco2)c2ccc(C(N)=O)cc2)cc1 [Cpd 180] | 10
51 | CCNC(=O)c1ccc(C(=C2CC3CCC(C2)N3Cc2ccsc2)c2cccc(-c3nnn[nH]3)c2)cc1 (single isomer, unassigned) [Cpd 216] | 12.1
52 | CCNC(=O)c1ccc(C(=C2CC3CCC(C2)N3Cc2nccs2)c2cccc(C(=O)O)c2)cc1 [Cpd 102] | 1320
53 | CCNC(=O)c1ccc(C(=C2CC3CCC(C2)N3Cc2ccccn2)c2cc(C(=O)O)cc([N+](=O)[O-])c2)cc1 [Cpd 154] | 91.3
54 | CCNC(=O)c1ccc(C(=C2CC3CCC(C2)N3)c2nnn[nH]2)cc1 (single isomer, unassigned) [Cpd 202] | 8120
55 | CCNC(=O)c1ccc(C(=C2CC3CCC(C2)N3Cc2ccc(NC(C)=O)cc2)c2ccc3c(c2)OCO3)cc1 [Cpd 5] | 73
56 | CCNC(=O)c1ccc(C(C#N)=C2CC3CCC(C2)N3Cc2ccoc2)cc1 (single isomer, unassigned) [Cpd 209] | 2.59
57 | CCNC(=O)c1ccc(C(=C2CC3CCC(C2)N3)c2nnn[nH]2)cc1 (single isomer, unassigned) [Cpd 201] | 12300
58 | CCNC(=O)c1ccc(C(=C2CC3CCC(C2)N3Cc2ccc(NC(C)=O)cc2)c2cnc3ccccc3c2)cc1 [Cpd 14] | 959
59 | CCNC(=O)c1ccc(C(=C2CC3CCC(C2)N3Cc2ccco2)c2cccc(-c3nnn[nH]3)c2)cc1 [Cpd 164, N-ethyl-4{(8-furan-2-ylmethyl-8-aza-bicyclo[3.2.1]oct-3-ylidene)-[3-(1H-tetrazol-5-yl)-phenyl]-methyl}-benzamide] | 2.32
60 | CCNC(=O)c1ccc(C(=C2CC3CCC(C2)N3Cc2ccc3ccccc3n2)c2cccc(C#N)c2)cc1 [Cpd 20] | 129
61 | CCNC(=O)c1ccc(C(=C2CC3CCC(C2)N3CC=C(C)C)c2ccc(S(N)(=O)=O)cc2)cc1 [Cpd 142] | 4.01
62 | CCNC(=O)c1ccc(C(=C2CC3CCC(C2)N3Cc2nccs2)c2cccc(CO)c2)cc1 [Cpd 186] | 28.6
63 | CCNC(=O)c1ccc(C(=C2CC3CCC(C2)N3Cc2nnn[nH]2)c2ccccc2)cc1 [Cpd 90, N-Ethyl-4-{phenyl-[8-(1H-tetrazol-5-ylmethyl)-8-aza-bicyclo[3.2.1]oct-3-ylidene]-methyl}-benzamide] | 406
64 | CCNC(=O)c1ccc(C=C2CC3CCC(C2)N3Cc2nccs2)cc1 [Cpd 133] | 581
